Source: publication PMC4979471 (Cell Death Discovery, 2015)
Where two headings read alike, the source gives them in different places.

Columns and labels:
Test in all cases: Kinase selectivity, P33-radiolabeled assay
Type in all cases: biochemical
IGF1R = target: T1, IGF1R (Homo sapiens, UniProt P08069)
T1 construct: purchased Reaction Biology Corp
Procedure, shortened: (§1)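 Duplicate single-concentration testing used 10 μM compound. The ATP concentration was also 10 μM.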

MEK1 = target: T2, MEK1 (Homo sapiens, UniProt Q02750); settings: 10 μM ATP
T2 construct: purchased Reaction Biology Corp
Procedure, shortened: as §1

IKKb/IKBKB = target: T3, IKKb/IKBKB (Homo sapiens, UniProt O14920); settings: 10 μM ATP
T3 construct: purchased Reaction Biology Corp
T3 sequence (O14920 1-756): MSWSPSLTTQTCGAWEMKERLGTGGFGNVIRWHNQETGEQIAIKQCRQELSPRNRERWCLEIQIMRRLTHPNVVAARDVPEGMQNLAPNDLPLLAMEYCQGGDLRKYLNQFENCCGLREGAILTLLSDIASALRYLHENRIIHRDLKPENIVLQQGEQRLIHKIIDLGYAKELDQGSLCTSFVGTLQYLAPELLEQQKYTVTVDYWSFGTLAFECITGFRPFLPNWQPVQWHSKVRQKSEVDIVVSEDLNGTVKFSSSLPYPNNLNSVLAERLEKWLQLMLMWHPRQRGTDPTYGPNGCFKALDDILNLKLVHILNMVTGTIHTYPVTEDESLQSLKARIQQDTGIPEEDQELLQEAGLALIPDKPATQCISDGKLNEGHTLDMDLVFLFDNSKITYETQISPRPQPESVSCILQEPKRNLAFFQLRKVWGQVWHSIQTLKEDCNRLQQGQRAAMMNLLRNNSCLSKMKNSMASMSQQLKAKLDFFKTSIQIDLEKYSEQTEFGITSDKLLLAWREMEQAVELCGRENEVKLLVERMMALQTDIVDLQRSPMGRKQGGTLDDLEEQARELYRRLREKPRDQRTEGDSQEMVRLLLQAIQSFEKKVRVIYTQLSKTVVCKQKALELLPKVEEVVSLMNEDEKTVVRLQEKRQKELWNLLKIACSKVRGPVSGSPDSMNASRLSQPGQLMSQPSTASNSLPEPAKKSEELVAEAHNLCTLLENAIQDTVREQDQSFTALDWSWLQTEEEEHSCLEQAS
Procedure, shortened: as §1

FMS = target: T4, FMS (Homo sapiens, UniProt P07333); settings: 10 μM ATP
T4 construct: purchased Reaction Biology Corp
Procedure, shortened: as §1

TLK1 = target: T5, TLK1 (Homo sapiens, UniProt Q9UKI8); settings: 10 μM ATP
T5 construct: purchased Reaction Biology Corp
T5 sequence (Q9UKI8 1-766): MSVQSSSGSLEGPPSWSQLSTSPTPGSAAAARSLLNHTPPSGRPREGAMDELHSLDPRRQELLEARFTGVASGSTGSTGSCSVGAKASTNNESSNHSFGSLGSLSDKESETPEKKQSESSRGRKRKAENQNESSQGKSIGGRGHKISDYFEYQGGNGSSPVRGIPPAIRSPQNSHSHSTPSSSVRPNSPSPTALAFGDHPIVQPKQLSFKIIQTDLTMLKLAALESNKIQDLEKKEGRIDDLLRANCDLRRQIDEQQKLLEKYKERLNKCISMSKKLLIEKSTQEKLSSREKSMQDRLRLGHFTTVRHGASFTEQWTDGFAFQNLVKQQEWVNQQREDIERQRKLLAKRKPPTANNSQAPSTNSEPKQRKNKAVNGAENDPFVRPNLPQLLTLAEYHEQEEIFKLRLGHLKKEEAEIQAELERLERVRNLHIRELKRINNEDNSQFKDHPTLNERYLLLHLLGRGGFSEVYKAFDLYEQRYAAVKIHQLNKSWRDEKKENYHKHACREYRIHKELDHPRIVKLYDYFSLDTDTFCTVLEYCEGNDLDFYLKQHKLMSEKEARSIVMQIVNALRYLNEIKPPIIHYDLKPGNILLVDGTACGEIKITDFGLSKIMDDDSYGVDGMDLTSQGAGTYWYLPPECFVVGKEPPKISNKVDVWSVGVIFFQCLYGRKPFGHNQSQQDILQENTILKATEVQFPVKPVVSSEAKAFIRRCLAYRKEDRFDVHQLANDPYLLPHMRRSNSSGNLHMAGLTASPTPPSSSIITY
Procedure, shortened: as §1

RSK3 = target: T6, RSK3 (Homo sapiens, UniProt Q15349); settings: 10 μM ATP
T6 construct: purchased Reaction Biology Corp
Procedure, shortened: as §1

MSK1/RPS6KA5 = target: T7, MSK1/RPS6KA5 (Homo sapiens, UniProt O75582); settings: 10 μM ATP
T7 construct: purchased Reaction Biology Corp
Procedure, shortened: as §1

[1] = read-out: % Enzyme Activity (relative to DMSO controls) Data 1
[2] = read-out: % Enzyme Activity (relative to DMSO controls) AVG
[3] = read-out: % Enzyme Activity (relative to DMSO controls) Data 2

T7 sequence (O75582 whole entry): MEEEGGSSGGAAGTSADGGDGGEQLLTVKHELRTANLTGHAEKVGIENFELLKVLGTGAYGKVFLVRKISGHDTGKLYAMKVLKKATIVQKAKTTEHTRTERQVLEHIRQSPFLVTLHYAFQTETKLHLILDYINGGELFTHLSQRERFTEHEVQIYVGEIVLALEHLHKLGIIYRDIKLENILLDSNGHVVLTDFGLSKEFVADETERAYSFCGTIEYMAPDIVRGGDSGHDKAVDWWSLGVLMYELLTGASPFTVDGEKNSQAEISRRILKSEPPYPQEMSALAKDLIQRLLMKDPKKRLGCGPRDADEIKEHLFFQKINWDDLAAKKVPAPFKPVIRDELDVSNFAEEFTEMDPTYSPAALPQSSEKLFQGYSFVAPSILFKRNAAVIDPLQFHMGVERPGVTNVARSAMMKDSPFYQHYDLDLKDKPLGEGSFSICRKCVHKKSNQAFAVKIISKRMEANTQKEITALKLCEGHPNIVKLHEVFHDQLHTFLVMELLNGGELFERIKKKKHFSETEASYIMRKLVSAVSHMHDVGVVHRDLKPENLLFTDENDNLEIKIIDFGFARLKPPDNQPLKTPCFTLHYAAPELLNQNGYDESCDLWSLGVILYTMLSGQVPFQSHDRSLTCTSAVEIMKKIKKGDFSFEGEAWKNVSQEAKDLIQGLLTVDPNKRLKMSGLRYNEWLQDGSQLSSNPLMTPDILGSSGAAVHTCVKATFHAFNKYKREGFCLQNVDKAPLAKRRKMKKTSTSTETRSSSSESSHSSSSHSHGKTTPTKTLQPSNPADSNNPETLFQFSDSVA
T6 sequence (Q15349 whole entry): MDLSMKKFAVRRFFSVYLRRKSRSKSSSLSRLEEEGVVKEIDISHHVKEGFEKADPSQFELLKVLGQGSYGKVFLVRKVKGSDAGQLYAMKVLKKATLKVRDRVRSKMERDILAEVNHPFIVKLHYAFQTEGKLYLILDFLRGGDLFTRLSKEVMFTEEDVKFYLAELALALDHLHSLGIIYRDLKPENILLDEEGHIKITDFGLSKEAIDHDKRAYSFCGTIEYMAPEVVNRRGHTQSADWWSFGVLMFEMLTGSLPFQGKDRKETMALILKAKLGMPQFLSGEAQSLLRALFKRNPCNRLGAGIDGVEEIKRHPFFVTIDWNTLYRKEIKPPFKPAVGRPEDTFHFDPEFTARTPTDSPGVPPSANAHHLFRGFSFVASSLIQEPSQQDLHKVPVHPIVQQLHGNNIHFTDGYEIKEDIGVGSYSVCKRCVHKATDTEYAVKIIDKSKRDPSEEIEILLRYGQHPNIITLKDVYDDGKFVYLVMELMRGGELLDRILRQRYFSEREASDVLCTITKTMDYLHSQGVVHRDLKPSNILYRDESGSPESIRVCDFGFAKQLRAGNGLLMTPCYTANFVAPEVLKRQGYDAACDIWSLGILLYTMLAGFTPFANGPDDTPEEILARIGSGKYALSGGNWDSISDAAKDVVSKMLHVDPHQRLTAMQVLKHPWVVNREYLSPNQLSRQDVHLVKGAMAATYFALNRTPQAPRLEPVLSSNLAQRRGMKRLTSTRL
T1 sequence (P08069 31-1367): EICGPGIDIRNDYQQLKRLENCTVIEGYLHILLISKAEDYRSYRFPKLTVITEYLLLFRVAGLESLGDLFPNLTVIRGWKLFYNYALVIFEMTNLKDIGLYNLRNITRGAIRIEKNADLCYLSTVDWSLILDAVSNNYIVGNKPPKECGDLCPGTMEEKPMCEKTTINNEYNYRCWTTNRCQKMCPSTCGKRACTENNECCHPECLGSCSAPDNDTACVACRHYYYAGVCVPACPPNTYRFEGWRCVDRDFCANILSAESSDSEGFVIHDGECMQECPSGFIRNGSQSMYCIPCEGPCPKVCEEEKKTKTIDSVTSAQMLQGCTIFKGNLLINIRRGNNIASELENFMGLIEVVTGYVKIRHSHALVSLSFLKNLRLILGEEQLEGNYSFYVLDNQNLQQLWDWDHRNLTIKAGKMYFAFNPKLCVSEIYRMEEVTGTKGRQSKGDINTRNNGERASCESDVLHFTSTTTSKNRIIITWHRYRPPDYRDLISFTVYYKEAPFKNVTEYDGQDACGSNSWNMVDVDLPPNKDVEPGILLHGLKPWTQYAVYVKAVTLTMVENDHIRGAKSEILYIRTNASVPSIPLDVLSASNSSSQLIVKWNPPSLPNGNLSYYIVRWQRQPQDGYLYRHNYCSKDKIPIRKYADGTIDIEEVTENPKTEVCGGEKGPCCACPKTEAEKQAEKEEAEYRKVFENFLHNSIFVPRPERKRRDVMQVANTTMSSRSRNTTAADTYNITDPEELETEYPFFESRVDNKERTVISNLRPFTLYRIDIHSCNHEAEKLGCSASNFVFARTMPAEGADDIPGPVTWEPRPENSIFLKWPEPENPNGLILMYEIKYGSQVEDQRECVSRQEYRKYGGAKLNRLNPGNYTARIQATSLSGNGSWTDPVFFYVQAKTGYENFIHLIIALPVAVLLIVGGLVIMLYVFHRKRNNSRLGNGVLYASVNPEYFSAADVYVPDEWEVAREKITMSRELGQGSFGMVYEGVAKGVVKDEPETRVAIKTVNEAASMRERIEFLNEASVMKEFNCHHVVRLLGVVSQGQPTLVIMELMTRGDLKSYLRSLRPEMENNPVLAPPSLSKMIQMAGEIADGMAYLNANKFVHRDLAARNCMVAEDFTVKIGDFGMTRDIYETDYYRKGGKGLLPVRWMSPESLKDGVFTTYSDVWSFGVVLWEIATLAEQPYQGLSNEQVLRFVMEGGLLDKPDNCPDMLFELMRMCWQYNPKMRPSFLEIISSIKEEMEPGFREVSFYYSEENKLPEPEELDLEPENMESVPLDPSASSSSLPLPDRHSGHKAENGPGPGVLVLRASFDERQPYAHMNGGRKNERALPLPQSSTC
T4 sequence (P07333 20-972): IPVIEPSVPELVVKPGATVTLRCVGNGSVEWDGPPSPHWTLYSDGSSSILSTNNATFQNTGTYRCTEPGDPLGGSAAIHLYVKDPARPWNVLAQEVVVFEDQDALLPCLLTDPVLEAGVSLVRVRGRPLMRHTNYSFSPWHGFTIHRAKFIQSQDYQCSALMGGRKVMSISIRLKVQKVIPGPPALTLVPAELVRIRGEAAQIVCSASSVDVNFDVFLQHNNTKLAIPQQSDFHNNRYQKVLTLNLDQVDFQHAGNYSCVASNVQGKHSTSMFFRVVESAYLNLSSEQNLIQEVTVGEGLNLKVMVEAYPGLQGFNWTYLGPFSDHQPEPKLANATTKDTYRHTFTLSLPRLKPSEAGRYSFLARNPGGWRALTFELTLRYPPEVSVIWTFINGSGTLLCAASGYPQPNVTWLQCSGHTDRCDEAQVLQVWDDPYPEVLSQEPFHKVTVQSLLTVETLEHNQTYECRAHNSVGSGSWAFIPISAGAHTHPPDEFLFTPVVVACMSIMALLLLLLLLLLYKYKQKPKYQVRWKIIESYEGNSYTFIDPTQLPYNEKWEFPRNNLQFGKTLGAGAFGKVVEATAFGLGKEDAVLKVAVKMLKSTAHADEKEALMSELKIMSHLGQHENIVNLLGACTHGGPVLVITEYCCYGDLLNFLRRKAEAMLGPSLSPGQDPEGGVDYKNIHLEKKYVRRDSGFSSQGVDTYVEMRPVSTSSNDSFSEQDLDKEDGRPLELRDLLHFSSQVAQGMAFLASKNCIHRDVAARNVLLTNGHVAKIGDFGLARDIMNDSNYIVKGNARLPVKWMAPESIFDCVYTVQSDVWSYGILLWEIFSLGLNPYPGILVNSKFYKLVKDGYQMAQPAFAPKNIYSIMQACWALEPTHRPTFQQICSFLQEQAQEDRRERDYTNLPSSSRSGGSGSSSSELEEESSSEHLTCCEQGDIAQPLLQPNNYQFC
T2 sequence (Q02750 whole entry): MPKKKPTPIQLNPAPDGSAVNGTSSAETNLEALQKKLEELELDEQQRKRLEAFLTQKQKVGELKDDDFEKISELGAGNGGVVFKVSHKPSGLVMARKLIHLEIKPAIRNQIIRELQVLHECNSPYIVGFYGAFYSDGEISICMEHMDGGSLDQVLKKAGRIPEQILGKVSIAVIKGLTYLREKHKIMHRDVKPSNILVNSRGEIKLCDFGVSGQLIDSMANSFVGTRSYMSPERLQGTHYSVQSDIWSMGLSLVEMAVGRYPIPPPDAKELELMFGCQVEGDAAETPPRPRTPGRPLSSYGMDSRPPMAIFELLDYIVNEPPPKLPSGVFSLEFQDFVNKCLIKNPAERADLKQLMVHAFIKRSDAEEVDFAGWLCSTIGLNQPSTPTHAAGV

## CC(C)(C)C(=O)N1N=CC[C@H]1c1ccccc1 [GSK′963]
IGF1R; 10 uM, 10 μM ATP, read-out: % Enzyme Activity (relative to DMSO controls) AVG
  remaining activity at 10 µM: 103%
IGF1R; 10 uM, 10 μM ATP, read-out: % Enzyme Activity (relative to DMSO controls) Data 2
  remaining activity at 10 µM: 104%
IGF1R; [1]
  remaining activity at 10 µM: 101%
MEK1; [2]
  remaining activity at 10 µM: 103%
MEK1; [1]
  remaining activity at 10 µM: 103%
MEK1; [3]
  remaining activity at 10 µM: 103%
IKKb/IKBKB; [2]
  remaining activity at 10 µM: 111%
IKKb/IKBKB; [1]
  remaining activity at 10 µM: 110%
IKKb/IKBKB; [3]
  remaining activity at 10 µM: 112%
FMS; [2]
  remaining activity at 10 µM: 95%
FMS; [1]
  remaining activity at 10 µM: 97.2%
FMS; [3]
  remaining activity at 10 µM: 92.8%
TLK1; [2]
  remaining activity at 10 µM: 97.5%
TLK1; [1]
  remaining activity at 10 µM: 101%
TLK1; [3]
  remaining activity at 10 µM: 93.9%
RSK3; [2]
  remaining activity at 10 µM: 101%
RSK3; [1]
  remaining activity at 10 µM: 102%
RSK3; [3]
  remaining activity at 10 µM: 99.6%
MSK1/RPS6KA5; [2]
  remaining activity at 10 µM: 108%
MSK1/RPS6KA5; [1]
  remaining activity at 10 µM: 108%
MSK1/RPS6KA5; [3]
  remaining activity at 10 µM: 108%
